The record followed here is ChEMBL document CHEMBL1148679, “A novel iNOS and COX-2 inhibitor from the aerial parts of Rodgersia podophylla” (2006).

Details in all cases: Mus musculus
For experiment [1], the system named is RAW264.7. Briefly: Decrease in iNOS level in LPS-activated Raw 264.7 cells. It is filed as functional, cell-based.
The subject of experiment [2] is RAW264.7. Briefly: Inhibition of iNOS expression in LPS-activated Raw 264.7 cells at 2 uM. It is filed as functional.
Experiment [3] relates to RAW264.7. Briefly: Inhibition of COX2 expression in LPS-activated Raw 264.7 cells at 3 uM. It counts as functional.
Experiment [4] concerns RAW264.7. Briefly: Decrease in COX2 level in LPS-activated Raw 264.7 cells. It counts as functional, cell-based.

For the compound `C/C=C/c1ccc(Oc2ccc(O)cc2)c(C(C)CO)c1` (centres undefined) [RODGERSINOL], the Activity result in the experiment with RAW264.7 [1] and in the experiment with RAW264.7 [4] was “Dose-dependent effect” each time. In addition, the inhibition at 2 µM with RAW264.7 [2] was determined as 50%. The same compound returned an inhibition at 3 µM with RAW264.7 [3] of 50%.

As a reminder, the inhibition is the change of the read-out against control, counted positive when it falls. Low readings indicate a weak effect, high ones a strong effect.
